Results published in PubChem BioAssay (NCI).
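Abbreviation: GI50, concentration required for 50% inhibition of growth. TGI marks complete inhibition of growth.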

Key:
Experiment in all cases: inhibition of tumour cell growth, NCI panel, 384-well format
[1] = system: OVCAR-8 ovarian
[2] = system: SK-MEL-28 melanoma
[3] = system: MDA-MB-231 breast
[4] = system: HCT-15 colon
[5] = system: MOLT-4 leukemia
[6] = system: A549 NSCLC
[7] = system: CAKI-1 renal
[8] = system: T-47D breast
[9] = system: SR leukemia
[10] = system: UACC-257 melanoma
[11] = system: HT29 colon
[12] = system: NCI-H522 lung
[13] = system: KM12 colon
[14] = system: HCC-2998 colon
[15] = system: NCI/ADR-RES ovarian
[16] = system: K-562 leukemia
[17] = system: NCI-H322M lung
[18] = system: ACHN renal
[19] = system: 786-0 renal
[20] = system: OVCAR-4 ovarian
[21] = system: A498 renal
[22] = system: SF-268 CNS
[23] = system: MDA-MB-435 melanoma
[24] = system: NCI-H23 lung
[25] = system: LOX IMVI melanoma
[26] = system: SK-OV-3 ovarian
[27] = system: SK-MEL-2 melanoma
[28] = system: HS 578T breast
[29] = system: TK-10 renal
[30] = system: SK-MEL-5 melanoma
[31] = system: BT-549 breast
[32] = system: NCI-H226 lung
[33] = system: U251 glioblastoma
[34] = system: CCRF-CEM leukemia
[35] = system: UACC-62 melanoma
[36] = system: SN12C renal
[37] = system: OVCAR-5 ovarian
[38] = system: PC-3 prostate
[39] = system: MDA-MB-468 breast
[40] = system: SNB-75 CNS
[41] = system: DU-145 prostate
[42] = system: MALME-3M melanoma
[43] = system: SNB-19 CNS
[44] = system: HL-60(TB) leukemia
[45] = system: HOP-62 NSCLC
[46] = system: HOP-92 NSCLC
[47] = system: MCF7 breast

## NC(=O)c1cccc2cn(-c3ccc([C@@H]4CCCNC4)cc3)nc12
[1]
  GI50: 7.24 µM
  TGI: 20.6 µM
[2]
  GI50: 16.2 µM
  TGI: 29.9 µM
[3]
  GI50: 14.7 µM
  TGI: 29 µM
[4]
  GI50: 11.9 µM
  TGI: 24.8 µM
[5]
  GI50: 1.49 µM
  TGI: 2.83 µM
[6]
  GI50: 11.8 µM
  TGI: 24.5 µM
[7]
  GI50: 11.1 µM
  TGI: 23.3 µM
[8]
  GI50: 12.6 µM
  TGI: 26.2 µM
[9]
  GI50: 0.805 µM
  TGI: 2.18 µM
[10]
  GI50: 16.8 µM
  TGI: 30.6 µM
[11]
  GI50: 13.4 µM
  TGI: 26.6 µM
[12]
  GI50: 15.1 µM
  TGI: 29 µM
[13]
  GI50: 14.7 µM
  TGI: 28.9 µM
[14]
  GI50: 14 µM
  TGI: 27.1 µM
[15]
  GI50: 13.5 µM
  TGI: 29.6 µM
[16]
  GI50: 10.1 µM
  TGI: 21.8 µM
[17]
  GI50: 18.2 µM
  TGI: 34.1 µM
[18]
  GI50: 9.72 µM
  TGI: 21.7 µM
[19]
  GI50: 12.7 µM
  TGI: 26.3 µM
[20]
  GI50: 25.2 µM
  TGI: 44.5 µM
[21]
  GI50: 16.7 µM
  TGI: 30.5 µM
[22]
  GI50: 5.24 µM
  TGI: 20.1 µM
[23]
  GI50: 17.5 µM
  TGI: 33.6 µM
[24]
  GI50: 5.93 µM
  TGI: 19.6 µM
[25]
  GI50: 7.47 µM
  TGI: 19.9 µM
[26]
  GI50: 11.7 µM
  TGI: 28.8 µM
[27]
  GI50: 23.2 µM
  TGI: 37.9 µM
[28]
  GI50: 10.1 µM
  TGI: 21.9 µM
[29]
  GI50: 16.2 µM
  TGI: 34 µM
[30]
  GI50: 7.81 µM
  TGI: 19.4 µM
[31]
  GI50: 9.95 µM
  TGI: 22 µM
[32]
  GI50: 12.5 µM
  TGI: 25.2 µM
[33]
  GI50: 12.2 µM
  TGI: 25.1 µM
[34]
  GI50: 1.83 µM
  TGI: 3.71 µM
[35]
  GI50: 12 µM
  TGI: 24.5 µM
[36]
  TGI: > 43.4 µM
[37]
  GI50: 24 µM
  TGI: 59.6 µM
[38]
  GI50: 15.4 µM
  TGI: 46.6 µM
[39]
  GI50: 1.49 µM
  TGI: 4.17 µM
[40]
  GI50: 4.68 µM
  TGI: 16.5 µM
[41]
  GI50: 4.89 µM
  TGI: 16.1 µM
[42]
  GI50: 12.8 µM
  TGI: 25.6 µM
[43]
  GI50: 18.3 µM
  TGI: > 54.2 µM
[44]
  GI50: 1.85 µM
  TGI: 3.88 µM
[45]
  GI50: 3.12 µM
  TGI: 11.3 µM
[46]
  GI50: 14.3 µM
  TGI: 28.3 µM
[47]
  GI50: 6.48 µM
  TGI: 18.8 µM
